Assays:
[1] = tested on: photoreceptors (TUNEL+ cells in the ONL); experiment: RRD model: TUNEL assay of the retinal outer nuclear layer; assay type: in vivo, mouse; conditions: day 3 RRD, equimolar IP doses twice daily (K-9H 60 mg/kg, 3TC 50 mg/kg)
Protocol: All experiments involving animals were approved by the University of Virginia Institutional Animal Care and Use Committee (IACUC) and adhered to the Association for Research in Vision and Ophthalmology (ARVO) Statement for the Use of Animals in Ophthalmic and Vision Research. Animal subjects were male and female mice aged 6 to 10 weeks. Wild type C57BL/6J mice were obtained from the Jackson Laboratory (Bar Harbor, ME, USA). To anesthetize mice for study procedures, ketamine hydrochloride (100 mg/kg; Ft. Dodge Animal Health, Overland Park, KS, USA) and xylazine (10 mg/kg; Phoenix Scientific, St. Joseph, MO, USA) were delivered by intraperitoneal (IP) injection. Pupils were dilated with topical 1% tropicamide and 2.5% phenylephrine (Alcon Laboratories, Ft. Worth, TX, USA).
RRD model was established by subretinal injection (SRI) of 3 μl 1% carboxymethyl cellulose (CMC; Refresh Liquigel, Allergan, Irvine, CA, USA).
NRTIs and K-9 were delivered via intraperitoneal (IP) injection in equimolar amounts. […] Kamuvudine K-9 (3-methyl-3TC, MW=273 g/mol) was administered either at a low dose (K-9L; 90 mg/kg daily) or a high dose (K-9H; 60 mg/kg twice daily, equimolar to NRTI doses). IP injection of phosphate buffered saline (PBS) was used as control.
Retinal cross cryosections at a thickness of 10 μm were stained with TUNEL (TdT-mediated dUTP nick-end labeling) using the In Situ Cell Death Detection Kit (Roche Diagnostics, Indianapolis, IN, USA) according to the manufacturer's′ instructions. The sections were wet-mounted with ProLong anti-fade reagent with DAPI (P36935, ThermoFisher Scientific, Waltham, MA, USA) and visualized using an A1R laser confocal microscope (Nikon, Tokyo, Japan). Fourteen representative sections, including the optic nerve, were used per treatment group. To calculate the number of TUNEL+ cells in the outer nuclear layer (ONL), the retina analysis toolkit of ImageJ (2.1.0; NIH, Bethesda, MD, USA) was used.

[2] = tested on: participants with diabetic macular edema; experiment: Visual acuity (VALS) compared with synthetic controls from the DRCR.net Protocol T study (IPTW, propensity score matching, GEE); assay type: in vivo, human; conditions: for Model-based contrast: change in visual acuity, Lamivudine vs. Aflibercept / Model-based contrast: change in visual acuity, Lamivudine vs. Bevacizumab / Model-based contrast: change in visual acuity, Lamivudine vs. Ranibizumab: IPTW model; for Mixed-effect model: change in visual acuity from baseline, Lamivudine vs Placebo / Mixed-effect model: change in visual acuity from baseline, Lamivudine vs. Aflibercept / Mixed-effect model: change in visual acuity from baseline, Lamivudine vs. Bevacizumab / Mixed-effect model: change in visual acuity from baseline, Lamivudine vs. Ranibizumab: propensity score matching
Excerpt: The second analysis included participants from the lamivudine versus placebo trial, along with a synthetic comparator created using data from the DRCR.net Protocol T study. The source of the data is DRCR.net (2018) A Comparative Effectiveness Study of Intravitreal Aflibercept, Bevacizumab and Ranibizumab for Diabetic Macular Edema, retrieved from https://public.jaeb.org/drcrnet/stdy/download/206. The analyses, content, and conclusions presented herein are solely the responsibility of the authors and have not been reviewed or approved by DRCR.net.
Inclusion criteria for participants from the DRCR.net Protocol T study were based on their similarity to the lamivudine versus placebo trial design. This involved selecting only patients with type 2 diabetes, study eyes with a baseline VALS<69, and complete follow-up visual acuity measurements at weeks 4 and 8.
(§1) Propensity score methods were used to select DRCR.net Protocol T study participants similar to lamivudine-treated patients. Inverse probability treatment weights (IPTW) and propensity score matching were used. To estimate the IPTW weights, a multinomial logistic regression was used to estimate propensity scores using important predictors including baseline visual acuity and baseline central subfield thickness along with age, gender, and duration of diabetes. Weights were calculated as the reciprocal of the estimated propensity score of the actual treatment received. Weights were then truncated at the 99th percentile. For the propensity score matched analysis, lamivudine-treated patients were matched to each DRCR.net Protocol T treatment arm (aflibercept, bevacizumab, ranibizumab) and placebo group, separately. Due to the limited sample size for matching within each group, propensity score models included the most important predictors of acuity change including baseline visual acuity, age and duration of diabetes.
(§2) For the IPTW analysis, a mixed-effects weighted model was fit with subject-specific random effects. […] The model's estimates, confidence intervals (CI), and P values were reported for each predictor. Additionally, model-based contrasts were conducted to compare the change in VALS from baseline between lamivudine and the Protocol T treatments.
For each propensity score matched group (e.g., lamivudine-bevacizumab, lamivudine-aflibercept), a mixed effect model was fit estimating the change in visual acuity from baseline. Subject specific random effect was included along with fixed effect predictors: treatment group, baseline VALS, central subfield thickness, eye (left vs right), age, sex, race and type 2 diabetes duration.
(§3) Secondary outcomes included the change in central subfield thickness, the percentage of eyes with an improvement in VALS of 15 or more, the correlation between improvements in visual acuity and central subfield thickness, and systemic and ocular adverse events. Change in central subfield thickness was estimated using mixed-effects models, similar to the VALS analysis. To analyze a VALS improvement of at least 15 letters, logistic regression using generalized estimating equations (GEEs) was specified with an exchangeable correlation matrix. Model-based contrasts were estimated to make pairwise treatment comparisons.

[3] = tested on: participants with diabetic macular edema; experiment: Retinal central subfield thickness by spectral-domain OCT, including synthetic controls from DRCR.net Protocol T; assay type: in vivo, human
Protocol: as §1, §2, §3
In all consultations, patients underwent tomography with the Spectralis device (Heidelberg) under mydriasis. The acquisition protocol was the 6×6 mm region centered on the fovea. Data analysis from SD-OCT was restricted to the central field (1 mm in diameter) Intravitreous Injection of Anti-VEGF

Nc1ccn([C@@H]2CS[C@H](CO)O2)c(=O)n1 [Lamivudine]
degree of photoreceptor protection [1]: 38%+10% | Model-based contrast: change in visual acuity, Lamivudine vs. Aflibercept [2]: 3.73 | Model-based contrast: change in visual acuity, Lamivudine vs. Bevacizumab [2]: 6.83 | Model-based contrast: change in visual acuity, Lamivudine vs. Ranibizumab [2]: 5.04 | Mixed effect model: change from baseline visual acuity, treatment estimate (ref: Placebo) ([2]; IPTW model with synthetic controls): 12.15 | Mixed effect model: change from baseline visual acuity, treatment estimate (ref: Placebo) ([2]; IPTW model with synthetic controls, listed as lamivudine): 12.2 | Model-based contrast: change in visual acuity, Lamivudine vs. Aflibercept ([2]; listed as lamivudine): 3.7 | Model-based contrast: change in visual acuity, Lamivudine vs. Bevacizumab ([2]; listed as lamivudine): 6.8 | Model-based contrast: change in visual acuity, Lamivudine vs. Ranibizumab ([2]; listed as lamivudine): 5.0 | Mixed effect model: change from baseline visual acuity, treatment estimate (ref: Placebo) ([2]; Original (unweighted) model with synthetic controls): 11.19 | Mixed-effect model: change in visual acuity from baseline, Lamivudine vs Placebo [2]: 10.88 | Mixed-effect model: change in visual acuity from baseline, Lamivudine vs. Aflibercept [2]: 2.33 | Mixed-effect model: change in visual acuity from baseline, Lamivudine vs. Bevacizumab [2]: 8.95 | Mixed-effect model: change in visual acuity from baseline, Lamivudine vs. Ranibizumab [2]: 7.24 | Mixed-effect model: change in visual acuity from baseline, Lamivudine vs Placebo ([2]; listed as lamivudine): 10.9 | Mixed-effect model: change in visual acuity from baseline, Lamivudine vs. Aflibercept ([2]; listed as lamivudine): 2.3 | Mixed-effect model: change in visual acuity from baseline, Lamivudine vs. Bevacizumab ([2]; listed as lamivudine): 9 | Mixed-effect model: change in visual acuity from baseline, Lamivudine vs. Ranibizumab ([2]; listed as lamivudine): 7.3 | IPTW mixed-effect model: change in central subfield thickness, Treatment × week [8] estimate ([3]; IPTW model, interaction term): 41.98 μm | IPTW mixed-effect model: change in central subfield thickness from baseline, treatment estimate (ref = Placebo) ([3]; IPTW model, main effect (week 4)): −48.84 μm | IPTW contrast: change in central subfield thickness, Lamivudine vs Bevacizumab ([3]; week 4): 17.5 μm | IPTW contrast: change in central subfield thickness, Lamivudine vs Placebo ([3]; week 4): −48.84 μm | IPTW contrast: change in central subfield thickness, Lamivudine vs. Aflibercept ([3]; week 4): 55.49 μm | IPTW contrast: change in central subfield thickness, Lamivudine vs. Ranibizumab ([3]; week 4): 64.83 μm | IPTW contrast: change in central subfield thickness, Lamivudine vs. Aflibercept ([3]; week 4, listed as lamivudine): 55 μm | IPTW contrast: change in central subfield thickness, Lamivudine vs. Ranibizumab ([3]; week 4, listed as lamivudine): 65 μm | IPTW contrast: change in central subfield thickness, Lamivudine vs Bevacizumab ([3]; week 8): −15.34 μm | IPTW contrast: change in central subfield thickness, Lamivudine vs Placebo ([3]; week 8): −6.86 μm | IPTW contrast: change in central subfield thickness, Lamivudine vs. Aflibercept ([3]; week 8): 28.93 μm | IPTW contrast: change in central subfield thickness, Lamivudine vs. Ranibizumab ([3]; week 8): 31.81 μm | Propensity score matched contrast: change in central subfield thickness, Lamivudine vs. Aflibercept ([3]; week 4): 92.6 μm | Propensity score matched contrast: change in central subfield thickness, Lamivudine vs. Bevacizumab ([3]; week 4): 12.6 μm | Propensity score matched contrast: change in central subfield thickness, Lamivudine vs. Placebo ([3]; week 4): −47.7 μm | Propensity score matched contrast: change in central subfield thickness, Lamivudine vs. Ranibizumab ([3]; week 4): 115.7 μm | Propensity score matched contrast: change in central subfield thickness, Lamivudine vs. Aflibercept ([3]; week 4, listed as lamivudine): 93 μm | Propensity score matched contrast: change in central subfield thickness, Lamivudine vs. Ranibizumab ([3]; week 4, listed as lamivudine): 116 μm | Propensity score matched contrast: change in central subfield thickness, Lamivudine vs. Aflibercept ([3]; week 8): 21.2 μm | Propensity score matched contrast: change in central subfield thickness, Lamivudine vs. Bevacizumab ([3]; week 8): −63.4 μm | Propensity score matched contrast: change in central subfield thickness, Lamivudine vs. Placebo ([3]; week 8): −38.1 μm | Propensity score matched contrast: change in central subfield thickness, Lamivudine vs. Ranibizumab ([3]; week 8): 37.1 μm | Mixed-effect model: change in central subfield thickness, Treatment × week [8] estimate ([3]; unweighted model, interaction term): 3.8 μm | Mixed-effect model: change in central subfield thickness from baseline, treatment estimate (ref = Placebo) ([3]; unweighted model, main effect (week 4)): −44.91 μm | Contrast: change in central subfield thickness, Lamivudine vs Bevacizumab ([3]; unweighted model, week 4): 30.65 μm | Contrast: change in central subfield thickness, Lamivudine vs Placebo ([3]; unweighted model, week 4): −44.91 μm | Contrast: change in central subfield thickness, Lamivudine vs. Aflibercept ([3]; unweighted model, week 4): 69.64 μm | Contrast: change in central subfield thickness, Lamivudine vs. Ranibizumab ([3]; unweighted model, week 4): 77.22 μm | Contrast: change in central subfield thickness, Lamivudine vs Bevacizumab ([3]; unweighted model, week 8): −50.42 μm | Contrast: change in central subfield thickness, Lamivudine vs Placebo ([3]; unweighted model, week 8): −41.1 μm | Contrast: change in central subfield thickness, Lamivudine vs. Aflibercept ([3]; unweighted model, week 8): −1.39 μm | Contrast: change in central subfield thickness, Lamivudine vs. Ranibizumab ([3]; unweighted model, week 8): −4.66 μm | percentage of eyes with VALS improvement of 15 or more that had minimal improvement in central subfield thickness (≤50 μm) ([3]; week 8, lamivudine group): 64%

Reference: patent publication US20260191861A1, “INFLAMMASOME AND VEGF INHIBITION FOR RETINAL VASCULAR DISEASES” (University of Virginia Patent Foundation, priority 2022, published 2026)
